According to patent US5773459A, “Urea- and thiourea-type compounds” (Sugen, Inc., priority 1995, dated 1998):

Test system: chimeric receptor containing the EGFR extracellular domain and the HER2 intracellular kinase domain
Assay: EGFR-HER2 chimeric receptor assay, HER2 kinase activity in whole NIH3T3 cells
Format: cell-based
Details: NIH3T3 cells with EGFR-HER2 chimera, EGF stimulated; read-out: ELISA DATA: HER2 - (3T3)
Source text: The following examples illustrate the ability of the exemplary compounds to inhibit receptor tyrosine kinases, such as HER2 and/or EGFR. The following target cells were used for cellular kinase assays: NIH3T3 clone C7 (Honegger et al., supra) engineered to over-express human EGF receptor; NIH3T3 cells engineered to over-express a chimeric receptor containing the EGFR extracellular domain and the HER2 intracellular kinase domain; the human mammary carcinoma line BT474 (ATCC HTB2) expressing HER2; and the human glioblastoma line U1242 that expresses PDGFR-beta. Growth assays were carried out using human mammary epithelial SKBR3 (ATCC HTB30) cells (SKBR3 cells over-express HER2), SKOV3 (ATCC HTB77) human ovarian cancer cell line (SKOV3 cells also over-express HER2), A431 cells (A431 cells over-express EGFR) MCF7 human breast carcinoma cells, MCF7 cells overexpressing the HER2 kinase (MCF7-HER2), NIH3T3 cells, and NIH3T3 cells overexpressing the HER2 kinase (3T3-HER2.
EGFR-HER2 Chimeric Recetor
HER2 kinase activity (EGFR-3T3) in whole cells was measured as described below:
The materials and regeants are identical to these used in example 1, the EGFR whole cell kinase assay.
A. Coat ELISA plates (Corning, 96 well, Cat. #25805-96) with 05-101 antibody at 0.5 μg per well in PBS, 100 μl final volume/well, and store overnight at 4.sunburst.C. Coated plates are good for up to 10 days when stored at 4° C.
B. On day of use, remove coating buffer and replace with 100 μl blocking buffer (5% Carnation Instant Non-Fat Dry Milk in PBS). Incubate the plate, shaking, at room temperature (about 23.sunburst.C to 25.sunburst.C) for 30 minutes. Just prior to use, remove blocking buffer and wash plate 4 times with TBST buffer.
A. An NIH3T3 cell line overexpressing a chimeric receptor containing the EGFR extracellular domain and […] can be used for this assay.
B. Choose dishes having 80-90% confluence for the experiment. Trypsinize cells and stop reaction by adding 10% fetal bovine serum. Suspend cells in DMEM medium (10% CS DMEM medium) and centrifuge once at 1500 rpm, at room temperature for 5 minutes.
C. Resuspend cells in seeding medium (DMEM, 0.5% bovine serum) , and count the cells using trypan blue. Viability above 90% is acceptable. Seed cells in DMEM medium (0.5% bovine serum) at a density of 10,000 cells per well, 100 μl per well, in a 96 well microtiter plate. Incubate seeded cells in 5% CO2 at 37.sunburst.C for about 40 hours.
A. Check seeded cells for contamination using an inverted microscope. Dilute drug stock (10 mg/ml in DMSO) 1:10 in DMEM medium, then transfer 5 l to a […] well for a final drug dilution of 1:200 and a final DMSO concentration of 1%. Control wells receive DMSO alone. Incubate in 5% CO2 at 37° C. for two hours. […]

IC50 [µM]	Structure (SMILES)
10.3	CC(C)S(=O)(=O)c1csc(NC(=O)Nc2ccc(C(C)(C)C)cc2)c1Cl [Example Z1, N-[3-Chloro-4-(isopropylsulfonyl)thien-2-yl]-N'-(4-t-butylphenyl)urea]
31.7	CC(C)S(=O)(=O)c1csc(NC(=O)Nc2cc(C(F)(F)F)cc(C(F)(F)F)c2)c1Cl [Example Z2, N-[3-Chloro-4-(isopropylsulfonyl)thien-2-yl]-N'-(3,5-di-trifluoromethylphenyl)urea]
> 100	N#Cc1ccc(NC(=S)Nc2ccc(S(=O)(=O)N3CCCCC3)cc2)cc1 [Example Z4, N-(4-Cyanophenyl)-N'-[4-[(piperid-1-yl)sulfonyl]phenyl]thiourea]

Structure (SMILES)	IC50 [µM]
O=C(Nc1ccc(SC(F)(F)F)cc1)Nc1ccc(Oc2ccc(Cl)cc2Cl)nc1 [Example Z3]	> 100
